Laboratory results as given in patent US20260285872A1, “COMPOUNDS AND METHODS FOR DEGRADING GSPT1” (priority 2023, published 2026).

system: NCI-H1155 cells; test: NSCLC cell viability, CellTiter-Glo, NCI-H1155 cells; assay type: cell-based; conditions: Homo sapiens; NCI-H1155 cells, CellTiter-Glo, 72 hours of treatment; read-out: Cell viability classification (NCI-H1155)

| Compound | IC50 |
| --- | --- |
| O=C1CCC(c2nc3ccc(C(=O)N4CCc5cccc(Cl)c5C4)cc3o2)C(=O)N1 (centres unmarked) [Example 179, 3-(6-(8-chloro-1,2,3,4-tetrahydroisoquinoline-2-carbonyl)benzo[d]oxazol-2-yl)piperidine-2,6-dione] | 100 to 1000 nM |
| N#Cc1cccc2c1CN(C(=O)c1ccc3nc(C4CCC(=O)NC4=O)oc3c1)C2 (centres unmarked) [Example 173, 2-(2-(2,6-dioxopiperidin-3-yl)benzo[d]oxazole-6-carbonyl)isoindoline-4-carbonitrile] | 100 to 1000 nM |
| O=C1CCC(c2nc3cc(COC(=O)NC4CC5(CCC(F)(F)CC5)C4)ccc3o2)C(=O)N1 (centres unmarked) [Example 260, (2-(2,6-dioxopiperidin-3-yl)benzo[d]oxazol-5-yl)methyl (7,7-difluorospiro[3.5]nonan-2-yl)carbamate] | 100 to 1000 nM |
| O=C1CCC(N2Cc3cc(C(=O)NC4CC5(C=C(c6ccc(C(F)(F)F)cc6)C5)C4)ccc3C2=O)C(=O)N1 (centres unmarked) [Example 256, 2-(2,6-dioxopiperidin-3-yl)-1-oxo-N-(6-(4-(trifluoromethyl)phenyl)spiro[3.3]hept-5-en-2-yl)isoindoline-5-carboxamide] | 100 to 1000 nM |
| O=C1CCC(N2Cc3cc(C(=O)NC4CC5(C=C(c6ccc(F)c(F)c6)C5)C4)ccc3C2=O)C(=O)N1 (centres unmarked) [Example 215, N-(6-(3,4-difluorophenyl)spiro[3.3]hept-5-en-2-yl)-2-(2,6-dioxopiperidin-3-yl)-1-oxoisoindoline-5-carboxamide] | 100 to 1000 nM |
| O=C1CCC(c2nc3ccc(C(=O)N4CCc5ccc(Cl)cc5C4)cc3o2)C(=O)N1 (centres unmarked) [Example 180, 3-(6-(7-chloro-1,2,3,4-tetrahydroisoquinoline-2-carbonyl)benzo[d]oxazol-2-yl)piperidine-2,6-dione] | > 1000 nM |
| COc1cccc2c1CN(C(=O)c1ccc3nc(C4CCC(=O)NC4=O)oc3c1)C2 (centres unmarked) [Example 162, 3-(6-(4-methoxyisoindoline-2-carbonyl)benzo[d]oxazol-2-yl)piperidine-2,6-dione] | > 1000 nM |
| O=C1CCC(c2nc3cc(COC(=O)NC4CC5(C4)CC(F)(F)C5)ccc3o2)C(=O)N1 (centres unmarked) [Example 253, (2-(2,6-dioxopiperidin-3-yl)benzo[d]oxazol-5-yl)methyl (6,6-difluorospiro[3.3]heptan-2-yl)carbamate] | > 1000 nM |
| O=C1CCC(c2nc3ccc(C(=O)N4CC5(CCC(F)(F)CC5)C4)cc3o2)C(=O)N1 (centres unmarked) [Example 220, 3-(6-(7,7-difluoro-2-azaspiro[3.5]nonane-2-carbonyl)benzo[d]oxazol-2-yl)piperidine-2,6-dione] | > 1000 nM |
| O=C1CCC(N2Cc3cc(C(=O)N4CC5(CC5)c5ccc(F)cc54)ccc3C2=O)C(=O)N1 (centres unmarked) [Example 105, 3-(5-(6′-fluorospiro[cyclopropane-1,3′-indoline]-1′-carbonyl)-1-oxoisoindolin-2-yl)piperidine-2,6-dione] | < 10 nM |
| O=C1CCC(N2Cc3cc(C(=O)N4CC(c5ccccc5F)C4)ccc3C2=O)C(=O)N1 (centres unmarked) [Example 194, 3-(5-(3-(2-fluorophenyl)azetidine-1-carbonyl)-1-oxoisoindolin-2-yl)piperidine-2,6-dione] | 100 to 1000 nM |
| O=C1CCC(c2nc3ccc(C(=O)N4CCc5cc(Cl)ccc5C4)cc3o2)C(=O)N1 (centres unmarked) [Example 171, 3-(6-(6-chloro-1,2,3,4-tetrahydroisoquinoline-2-carbonyl)benzo[d]oxazol-2-yl)piperidine-2,6-dione] | 100 to 1000 nM |
| O=C1CCN(c2ccc3cc(COC(=O)Nc4cc(OC(F)(F)F)ccc4F)ccc3c2)C(=O)N1 [Example 143, (6-(2,4-dioxotetrahydropyrimidin-1(2H)-yl)naphthalen-2-yl)methyl(2-fluoro-5-(trifluoromethoxy)phenyl)carbamate] | 100 to 1000 nM |
| C[C@@H]1c2c(F)cccc2CN1C(=O)c1ccc2nc(C3CCC(=O)NC3=O)oc2c1 (stereo partly drawn) [Example 159, 3-(6-((R)-7-fluoro-1-methylisoindoline-2-carbonyl)benzo[d]oxazol-2-yl)piperidine-2,6-dione] | > 1000 nM |
| O=C1CCC(N2Cc3cc(C(=O)NC4CC5(C4)CC(O)(c4ccc(F)cc4)C5)ccc3C2=O)C(=O)N1 (centres unmarked) [Example 225, 2-(2,6-dioxopiperidin-3-yl)-N-(6-(4-fluorophenyl)-6-hydroxyspiro[3.3]heptan-2-yl)-1-oxoisoindoline-5-carboxamide] | > 1000 nM |
| O=C1CCC(c2nc3ccc(COC(=O)Nc4cc(OC(F)(F)F)ccc4F)cc3o2)C(=O)N1 (centres unmarked) [Example 212, (2-(2,6-dioxopiperidin-3-yl)benzo[d]oxazol-6-yl)methyl (2-fluoro-5-(trifluoromethoxy)phenyl)carbamate] | 100 to 1000 nM |
| O=C1CCC(N2Cc3cc(C(=O)N4CC5(C4)CC(O)(c4ccc(F)cc4)C5)ccc3C2=O)C(=O)N1 (centres unmarked) [Example 243, 3-(5-(6-(4-fluorophenyl)-6-hydroxy-2-azaspiro[3.3]heptane-2-carbonyl)-1-oxoisoindolin-2-yl)piperidine-2,6-dione] | > 1000 nM |

Results, then the compound that gave them:

| IC50 | Compound |
| --- | --- |
| > 1000 nM | O=C1CCC(N2Cc3cc(C(=O)N4CC5(CCOCC5)C4)ccc3C2=O)C(=O)N1 (centres unmarked) [Example 186, 3-(1-oxo-5-(7-oxa-2-azaspiro[3.5]nonane-2-carbonyl)isoindolin-2-yl)piperidine-2,6-dione] |
| 10 to 100 nM | O=C1CCC(N2Cc3cc(C(=O)N4CC5(CC(c6ccc(F)cc6F)C5)C4)ccc3C2=O)C(=O)N1 (centres unmarked) [Example 229, 3-(5-(6-(2,4-difluorophenyl)-2-azaspiro[3.3]heptane-2-carbonyl)-1-oxoisoindolin-2-yl)piperidine-2,6-dione] |
| > 1000 nM | C[C@H]1c2c(F)cccc2CN1C(=O)c1ccc2c(c1)CN(C1CCC(=O)NC1=O)C2=O (stereo partly drawn) [Example 140, 3-(5-((S)-7-fluoro-1-methylisoindoline-2-carbonyl)-1-oxoisoindolin-2-yl)piperidine-2,6-dione] |
| 10 to 100 nM | O=C1CCC(N2Cc3cc(C(=O)N4CC5(CC(c6ccc(C(F)(F)F)c(F)c6)C5)C4)ccc3C2=O)C(=O)N1 (centres unmarked) [Example 245, 3-(5-(6-(3-fluoro-4-(trifluoromethyl)phenyl)-2-azaspiro[3.3]heptane-2-carbonyl)-1-oxoisoindolin-2-yl)piperidine-2,6-dione] |
| 10 to 100 nM | O=C1CCC(N2Cc3cc(C(=O)N4Cc5cc(F)cc(Cl)c5C4)ccc3C2=O)C(=O)N1 (centres unmarked) [Example 152, 3-(5-(4-chloro-6-fluoroisoindoline-2-carbonyl)-1-oxoisoindolin-2-yl)piperidine-2,6-dione] |
| 10 to 100 nM | O=C1CCC(N2Cc3cc(C(=O)N4Cc5ccc(F)c(Cl)c5C4)ccc3C2=O)C(=O)N1 (centres unmarked) [Example 144, 3-(5-(4-chloro-5-fluoroisoindoline-2-carbonyl)-1-oxoisoindolin-2-yl)piperidine-2,6-dione] |
| 10 to 100 nM | O=C1CCC(N2Cc3cc(C(=O)N4CCC5(C=C(c6ccc(F)cc6)C5)C4)ccc3C2=O)C(=O)N1 (centres unmarked) [Example 247, 3-(5-(2-(4-fluorophenyl)-6-azaspiro[3.4]oct-1-ene-6-carbonyl)-1-oxoisoindolin-2-yl)piperidine-2,6-dione] |
| 10 to 100 nM | C[C@@H]1c2c(F)cccc2CN1C(=O)c1ccc2c(c1)CN(C1CCC(=O)NC1=O)C2=O (stereo partly drawn) [Example 139, 3-(5-((R)-7-fluoro-1-methylisoindoline-2-carbonyl)-1-oxoisoindolin-2-yl)piperidine-2,6-dione] |
| 10 to 100 nM | N#Cc1ccc(C2=CC3(C2)CN(C(=O)c2ccc4c(c2)CN(C2CCC(=O)NC2=O)C4=O)C3)cc1 (centres unmarked) [Example 242, 4-(2-(2-(2,6-dioxopiperidin-3-yl)-1-oxoisoindoline-5-carbonyl)-2-azaspiro[3.3]hept-5-en-6-yl)benzonitrile] |
| 100 to 1000 nM | O=C1CCC(N2Cc3cc(C(=O)NC4CC5(C=C(c6ccc(F)cc6F)C5)C4)ccc3C2=O)C(=O)N1 (centres unmarked) [Example 214, N-(6-(2,4-difluorophenyl)spiro[3.3]hept-5-en-2-yl)-2-(2,6-dioxopiperidin-3-yl)-1-oxoisoindoline-5-carboxamide] |
| 10 to 100 nM | O=C1CCC(N2Cc3cc(C(=O)N4CCC5(C=C(c6cccc(F)c6)C5)C4)ccc3C2=O)C(=O)N1 (centres unmarked) [Example 249, 3-(5-(2-(3-fluorophenyl)-6-azaspiro[3.4]oct-1-ene-6-carbonyl)-1-oxoisoindolin-2-yl)piperidine-2,6-dione] |
| 10 to 100 nM | O=C1CCC(N2Cc3cc(C(=O)N4CCC5(CC(c6ccc(F)cc6)C5)C4)ccc3C2=O)C(=O)N1 (centres unmarked) [Example 248, 3-(5-(2-(4-fluorophenyl)-6-azaspiro[3.4]octane-6-carbonyl)-1-oxoisoindolin-2-yl)piperidine-2,6-dione] |
| 10 to 100 nM | N#Cc1cc(F)c2c(c1)CN(C(=O)c1ccc3c(c1)CN(C1CCC(=O)NC1=O)C3=O)C2 (centres unmarked) [Example 156, 2-(2-(2,6-dioxopiperidin-3-yl)-1-oxoisoindoline-5-carbonyl)-7-fluoroisoindoline-5-carbonitrile] |
| 100 to 1000 nM | O=C1CCC(N2Cc3cc(C(=O)N4CC5(CCC(F)(F)CC5)C4)ccc3C2=O)C(=O)N1 (centres unmarked) [Example 157, 3-(5-(7,7-difluoro-2-azaspiro[3.5]nonane-2-carbonyl)-1-oxoisoindolin-2-yl)piperidine-2,6-dione] |
| 10 to 100 nM | O=C1CCC(N2Cc3cc(C(=O)N4CC5(CCC(C(F)(F)F)C5)C4)ccc3C2=O)C(=O)N1 (centres unmarked) [Example 222, 3-(1-oxo-5-(6-(trifluoromethyl)-2-azaspiro[3.4]octane-2-carbonyl)isoindolin-2-yl)piperidine-2,6-dione] |
| 100 to 1000 nM | N#Cc1ccccc1C1=CC2(C1)CN(C(=O)c1ccc3c(c1)CN(C1CCC(=O)NC1=O)C3=O)C2 (centres unmarked) [Example 238, 2-(2-(2-(2,6-dioxopiperidin-3-yl)-1-oxoisoindoline-5-carbonyl)-2-azaspiro[3.3]hept-5-en-6-yl)benzonitrile] |
| 100 to 1000 nM | O=C1CCC(N2Cc3cc(C(=O)N4CC5(CCC(F)(F)C5)C4)ccc3C2=O)C(=O)N1 (centres unmarked) [Example 163, 3-(5-(6,6-difluoro-2-azaspiro[3.4]octane-2-carbonyl)-1-oxoisoindolin-2-yl)piperidine-2,6-dione] |
| 100 to 1000 nM | O=C1CCC(N2Cc3cc(C(=O)N4CCC5(CC(c6cccc(F)c6)C5)C4)ccc3C2=O)C(=O)N1 (centres unmarked) [Example 250, 3-(5-(2-(3-fluorophenyl)-6-azaspiro[3.4]octane-6-carbonyl)-1-oxoisoindolin-2-yl)piperidine-2,6-dione] |
